Drawing on BindingDB's records for doi:10.1016/j.bioorg.2016.03.011 (Beni-Suef University, 2016), this text covers IC50 for 2 molecules.

Each structure is given as a SMILES string.

The target of this test is Epidermal growth factor receptor (Homo sapiens, UniProt P00533). The experiment in a line: Kinase-Glo Plus Luminescence Kinase Assay. Here is the method: Kinase activity was determined using Kinase-Glo Plus luminescence kinase assay kit according to the manufacturer instructions. The assays depend on the quantitation of the amount of ATP remaining in the solution of kinase reaction.
On the technique in general: In Kinase-Glo more light means more ATP remaining.

Sequence of Epidermal growth factor receptor (P00533 whole entry): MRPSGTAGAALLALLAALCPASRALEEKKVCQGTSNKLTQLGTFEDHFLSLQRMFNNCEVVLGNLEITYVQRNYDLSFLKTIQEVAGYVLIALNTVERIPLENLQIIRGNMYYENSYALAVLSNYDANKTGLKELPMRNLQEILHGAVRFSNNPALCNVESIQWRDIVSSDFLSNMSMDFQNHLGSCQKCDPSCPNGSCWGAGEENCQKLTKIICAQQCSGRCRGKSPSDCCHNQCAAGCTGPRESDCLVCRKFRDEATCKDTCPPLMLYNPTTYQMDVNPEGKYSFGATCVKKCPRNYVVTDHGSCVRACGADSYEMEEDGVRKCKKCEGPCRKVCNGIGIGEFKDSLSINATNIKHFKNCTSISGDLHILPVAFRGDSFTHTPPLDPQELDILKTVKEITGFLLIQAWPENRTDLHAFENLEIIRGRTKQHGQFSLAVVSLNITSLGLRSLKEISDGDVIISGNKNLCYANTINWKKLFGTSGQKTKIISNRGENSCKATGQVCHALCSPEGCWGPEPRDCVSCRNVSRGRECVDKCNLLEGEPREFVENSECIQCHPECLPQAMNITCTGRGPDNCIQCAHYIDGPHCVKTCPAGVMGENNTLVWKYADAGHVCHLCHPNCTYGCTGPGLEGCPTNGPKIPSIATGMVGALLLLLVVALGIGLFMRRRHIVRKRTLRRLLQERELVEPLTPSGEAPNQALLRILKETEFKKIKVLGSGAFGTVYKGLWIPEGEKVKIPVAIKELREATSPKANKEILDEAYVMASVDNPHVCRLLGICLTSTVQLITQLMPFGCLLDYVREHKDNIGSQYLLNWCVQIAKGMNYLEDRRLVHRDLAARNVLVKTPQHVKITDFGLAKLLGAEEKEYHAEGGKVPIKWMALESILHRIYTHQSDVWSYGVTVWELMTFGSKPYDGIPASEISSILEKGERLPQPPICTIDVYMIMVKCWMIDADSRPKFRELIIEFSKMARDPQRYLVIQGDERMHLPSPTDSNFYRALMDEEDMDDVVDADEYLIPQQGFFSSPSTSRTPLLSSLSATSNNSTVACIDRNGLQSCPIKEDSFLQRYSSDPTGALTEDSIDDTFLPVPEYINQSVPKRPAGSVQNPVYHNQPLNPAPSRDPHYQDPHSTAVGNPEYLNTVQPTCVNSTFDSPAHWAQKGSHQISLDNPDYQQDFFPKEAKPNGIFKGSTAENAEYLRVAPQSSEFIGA

As to `Cc1cc(OCC(=O)N/N=C/c2ccc(C(F)(F)F)cc2)c2c(C)nn(-c3ccccc3)c2n1` [N-(4-Trifluoromethylbenzylidene)-2-(3,6-dimethyl-1-phenyl-1H-pyrazolo[3,4-d]pyrimidin-4-yloxy)acetohydrazide (12f)], the IC50 came out at 35.9 µM.

Regarding `Cc1cc(OCC(=O)N/N=C/c2ccc(F)cc2)c2c(C)nn(-c3ccccc3)c2n1` [N-(4-fluorobenzylidene)-2-(3,6-dimethyl-1-phenyl-1H-pyrazolo[3,4-d]pyrimidin-4-yloxy)acetohydrazide (12b)], the concentration for half-maximal inhibition (IC50) amounted to 30 µM.

By IC50 is commonly meant the concentration that inhibits the measured activity by half.
